Laboratory results taken from PubChem BioAssay AID330 (DTP/NCI, 2004).
Values joined by “and” are separate entries in the source; they are usually repeats but may differ in a detail not shown here. Equal entries are not always repeated. Inconclusive results and toxic doses are left out. How the source made its calls: active means survival T/C of 150% or more; inactive means T/C below 125% in these data.

Test system: P388 leukemia ip, CD2F1 mice, survival T/C
Assay: NCI In Vivo Anticancer Drug Screen. Data for tumor model P388 Leukemia (intraperitoneal) in CD2F1 (CDF1) mice
Settings: endpoint: median survival time, higher = longer survival
How it was run: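 Mice carrying the transplanted tumor received test compound or vehicle. Survival was recorded in each group, and the value is the treated-group measurement divided by that of the vehicle-treated control group.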

[1] = dose: 50.0 mg/kg/injection, schedule: Q01DX005 (ip), vehicle: Klucel (hydroxypropylcellulose) (HPC)
[2] = dose: 100.0 mg/kg/injection, schedule: Q01DX005 (ip), vehicle: Klucel (hydroxypropylcellulose) (HPC)
[3] = dose: 200.0 mg/kg/injection, schedule: Q01DX005 (ip), vehicle: Klucel (hydroxypropylcellulose) (HPC)
[4] = dose: 25.0 mg/kg/injection, schedule: Q04DX002 (ip), vehicle: saline with Tween-80
[5] = dose: 50.0 mg/kg/injection, schedule: Q04DX002 (ip), vehicle: saline with Tween-80
[6] = dose: 100.0 mg/kg/injection, schedule: Q04DX002 (ip), vehicle: saline with Tween-80
[7] = dose: 12.5 mg/kg/injection, schedule: Q01DX005 (ip), vehicle: saline with Tween-80
[8] = dose: 25.0 mg/kg/injection, schedule: Q01DX005 (ip), vehicle: saline with Tween-80
[9] = dose: 50.0 mg/kg/injection, schedule: Q01DX005 (ip), vehicle: saline with Tween-80
[10] = dose: 100.0 mg/kg/injection, schedule: Q01DX005 (ip), vehicle: saline with Tween-80
[11] = dose: 3.13 mg/kg/injection, schedule: Q01DX009 (ip), vehicle: saline with Tween-80
[12] = dose: 6.25 mg/kg/injection, schedule: Q01DX009 (ip), vehicle: saline with Tween-80
[13] = dose: 50.0 mg/kg/injection, schedule: Q01DX009 (ip), vehicle: saline with Tween-80
[14] = dose: 50.0 mg/kg/injection, schedule: Q01DX009 (ip), vehicle: saline
[15] = dose: 100.0 mg/kg/injection, schedule: Q01DX009 (ip), vehicle: saline with Tween-80
[16] = dose: 100.0 mg/kg/injection, schedule: Q01DX009 (ip), vehicle: saline
[17] = dose: 200.0 mg/kg/injection, schedule: Q01DX009 (ip), vehicle: saline with Tween-80
[18] = dose: 200.0 mg/kg/injection, schedule: Q01DX009 (ip), vehicle: saline
[19] = dose: 400.0 mg/kg/injection, schedule: Q01DX009 (ip), vehicle: saline with Tween-80

Measured: T/C

COc1cc(/C=C2\N=C(C)OC2=O)ccc1O
inactive: [1] 106 % of control | [2] 101 % of control | [3] 104 % of control

O=S(=O)(CI)OCCCl
inactive: [1] 102 % of control | [2] 110 % of control

CCN(CC)P(Cl)(C1=C(Cl)C(=O)C(C#N)=C(C#N)C1=O)(N(CC)CC)N(CC)CC
inactive: dose: 100.0 mg/kg/injection, schedule: Q01DX001 (ip), vehicle: saline with Tween-80 89 % of control | dose: 400.0 mg/kg/injection, schedule: Q01DX001 (ip), vehicle: saline with Tween-80 89 % of control

C/C(=N\NC(N)=Nc1ccc(Cl)cc1)c1ccc(Cl)c(Cl)c1
inactive: [4] 99 % of control | [5] 102 % of control | [6] 102 % of control

O=CC(=C\c1cccs1)/C(C=O)=C\c1cccs1
inactive: [7] 107 % of control | [8] 108 % of control | [9] 108 % of control and 114 % of control | [10] 109 % of control

COc1cc2c(c(C(C)(C)C)c1)OC1(O)C2=CC(=O)C=C1C(C)(C)C (stereo not drawn)
inactive: dose: 6.25 mg/kg/injection, schedule: Q01DX005 (ip), vehicle: Klucel (hydroxypropylcellulose) (HPC) 120 % of control | dose: 12.5 mg/kg/injection, schedule: Q01DX005 (ip), vehicle: Klucel (hydroxypropylcellulose) (HPC) 120 % of control | dose: 25.0 mg/kg/injection, schedule: Q01DX005 (ip), vehicle: Klucel (hydroxypropylcellulose) (HPC) 114 % of control | [1] 110 % of control | [2] 107 % of control

CC(C)(C)c1cc(C2C(C#N)C(=O)NC(=O)C2C#N)cc(C(C)(C)C)c1O (stereo not drawn)
inactive: dose: 50.0 mg/kg/injection, schedule: Q01DX009 (ip), vehicle: Klucel (hydroxypropylcellulose) (HPC) 103 % of control | dose: 100.0 mg/kg/injection, schedule: Q01DX009 (ip), vehicle: Klucel (hydroxypropylcellulose) (HPC) 100 % of control | dose: 200.0 mg/kg/injection, schedule: Q01DX009 (ip), vehicle: Klucel (hydroxypropylcellulose) (HPC) 94 % of control

CN(C)c1ccc(CCc2nc(N)nc3nccnc23)cc1
inactive: dose: 50.0 mg/kg/injection, schedule: Q04DX003 (ip), vehicle: Klucel (hydroxypropylcellulose) (HPC) 96 % of control | dose: 100.0 mg/kg/injection, schedule: Q04DX003 (ip), vehicle: Klucel (hydroxypropylcellulose) (HPC) 90 % of control | dose: 200.0 mg/kg/injection, schedule: Q04DX003 (ip), vehicle: Klucel (hydroxypropylcellulose) (HPC) 96 % of control | dose: 400.0 mg/kg/injection, schedule: Q04DX003 (ip), vehicle: Klucel (hydroxypropylcellulose) (HPC) 99 % of control

CC(C)CCSC1=CC(=O)c2ccccc2C1=O
inactive: [11] 99 % of control | [12] 109 % of control | dose: 12.5 mg/kg/injection, schedule: Q01DX009 (ip), vehicle: saline with Tween-80 109 % of control | dose: 25.0 mg/kg/injection, schedule: Q01DX009 (ip), vehicle: saline with Tween-80 114 % of control

O=C(CN1CCCCC1)Nc1ccc(Br)cc1
inactive: [13] 106 % of control | [14] 103 % of control and 113 % of control | [15] 100 % of control | [16] 105 % of control | [17] 111 % of control | [18] 120 % of control | [19] 102 % of control

COC(=O)/C=C(\NC1CC(OC2C[C@](O)(C(C)=O)Cc3c(O)c4c(c(O)c32)C(=O)c2c(OC)cccc2C4=O)OC(C)C1O)C(=O)OC (stereo partly drawn)
inactive: dose: 6.25 mg/kg/injection, schedule: Q04DX003 (ip), vehicle: saline with Tween-80 104 % of control | dose: 12.5 mg/kg/injection, schedule: Q04DX003 (ip), vehicle: saline with Tween-80 105 % of control and 115 % of control | dose: 25.0 mg/kg/injection, schedule: Q04DX003 (ip), vehicle: saline with Tween-80 121 % of control | dose: 100.0 mg/kg/injection, schedule: Q04DX003 (ip), vehicle: saline with Tween-80 121 % of control

CCOc1ccc(/C=N/NC(=O)c2ccc(O)c(OC)c2)cc1OC
inactive: dose: 60.0 mg/kg/injection, schedule: Q01DX005 (ip), vehicle: saline 100 % of control | dose: 120.0 mg/kg/injection, schedule: Q01DX005 (ip), vehicle: saline 102 % of control | dose: 240.0 mg/kg/injection, schedule: Q01DX005 (ip), vehicle: saline 95 % of control

O=C(O)c1cc(N2C(=O)c3ccc4c5ccc6c7c(ccc(c8ccc(c3c48)C2=O)c75)C(=O)N(c2ccc(O)c(C(=O)O)c2)C6=O)ccc1O
inactive: [14] 98 % of control | [16] 91 % of control | [18] 90 % of control

CCOc1c(C)cc(C(C)c2cc3c(cc2OC)OCO3)cc1C (stereo not drawn)
inactive: [9] 97 % of control | [10] 99 % of control | dose: 200.0 mg/kg/injection, schedule: Q01DX005 (ip), vehicle: saline with Tween-80 107 % of control

O=[N+]([O-])c1ccccc1C(Nc1nncs1)Nc1nncs1
inactive: [1] 102 % of control | [2] 102 % of control and 121 % of control

Cc1cc(N)c([N+](=O)[O-])cc1C
inactive: [13] 101 % of control | [15] 100 % of control | [17] 96 % of control | [19] 95 % of control

CCCCCC[N+](C)([O-])CCCCCC[N+](C)([O-])CCCCCC (stereo not drawn)
inactive: [14] 107 % of control | [16] 101 % of control | [18] 97 % of control

C/C(=N/NC(N)=S)c1cn[nH]c1C
inactive: dose: 15.0 mg/kg/injection, schedule: Q01DX005 (ip), vehicle: Klucel (hydroxypropylcellulose) (HPC) 102 % of control | dose: 30.0 mg/kg/injection, schedule: Q01DX005 (ip), vehicle: Klucel (hydroxypropylcellulose) (HPC) 102 % of control | dose: 60.0 mg/kg/injection, schedule: Q01DX005 (ip), vehicle: Klucel (hydroxypropylcellulose) (HPC) 114 % of control

ClC1CCCCC1C(C1CCCCC1)C1CCCCC1 (stereo not drawn)
inactive: [9] 98 % of control | [10] 100 % of control

COCOCCC1C=CCC2C(=O)C=C(OC)C(O)C12C (stereo not drawn)
inactive: [1] 108 % of control | [2] 97 % of control | [3] 101 % of control

CC1(C)CN(c2ccccc2)N(CN2CCOCC2)C1=O
inactive: dose: 3.12 mg/kg/injection, schedule: Q01DX009 (ip), vehicle: Klucel (hydroxypropylcellulose) (HPC) 103 % of control | dose: 6.25 mg/kg/injection, schedule: Q01DX009 (ip), vehicle: Klucel (hydroxypropylcellulose) (HPC) 97 % of control | dose: 12.5 mg/kg/injection, schedule: Q01DX009 (ip), vehicle: Klucel (hydroxypropylcellulose) (HPC) 104 % of control

Cc1c(-c2ccc(C(=N)N)cc2)oc(-c2ccc(C(=N)N)cc2)c1C
inactive: [11] 104 % of control | [12] 112 % of control

CCCCc1ccc(-c2nn[nH]n2)nc1
inactive: [4] 101 % of control | [5] 100 % of control and 102 % of control | [6] 100 % of control and 102 % of control and 104 % of control | dose: 200.0 mg/kg/injection, schedule: Q04DX002 (ip), vehicle: saline with Tween-80 105 % of control and 123 % of control and 95 % of control

Cc1cc(Cl)cc(C(=O)c2ccccc2)c1OC(N)=O
inactive: [1] 101 % of control | [2] 103 % of control | [3] 106 % of control

Cc1ccc(C(C)(C)O)cc1O
inactive: dose: 8.75 mg/kg/injection, schedule: Q01DX005 (ip), vehicle: Klucel + Tween-80 100 % of control | dose: 17.5 mg/kg/injection, schedule: Q01DX005 (ip), vehicle: Klucel + Tween-80 100 % of control | dose: 35.0 mg/kg/injection, schedule: Q01DX005 (ip), vehicle: Klucel + Tween-80 103 % of control | dose: 70.0 mg/kg/injection, schedule: Q01DX005 (ip), vehicle: Klucel + Tween-80 103 % of control

COc1ccc(C(C)c2cc(N=O)c(OC)cc2O)cc1 (stereo not drawn)
inactive: [7] 91 % of control | [8] 94 % of control | [9] 92 % of control and 96 % of control

CCOC(=O)N1CCN(CCCCCOc2ccccc2C2CCCCC2)CC1
inactive: [13] 110 % of control | [15] 108 % of control | [17] 124 % of control | [19] 115 % of control

CC1(C)OC(=O)C(=Cc2ccc([N+](=O)[O-])s2)C(=O)O1
inactive: [13] 103 % of control and 110 % of control | [15] 109 % of control and 122 % of control | [17] 111 % of control and 124 % of control
